Measurements reported in BindingDB's records for doi:10.1016/j.bmcl.2008.11.037 (Wyeth Research, 2009).

Target: Insulin-like growth factor 1 receptor (Homo sapiens, UniProt P08069)
Test: In Vitro Kinase Inhibition Assay
Experimental: Assays were performed in microtiter plates in reaction buffer containing biotinylated substrate, ATP, and purified kinase in the presence of test compounds. After incubation, product was detected using a homogeneous time-resolved fluorescence quenching assay (LANCE).

Sequence of Insulin-like growth factor 1 receptor (P08069 31-736 limits assumed): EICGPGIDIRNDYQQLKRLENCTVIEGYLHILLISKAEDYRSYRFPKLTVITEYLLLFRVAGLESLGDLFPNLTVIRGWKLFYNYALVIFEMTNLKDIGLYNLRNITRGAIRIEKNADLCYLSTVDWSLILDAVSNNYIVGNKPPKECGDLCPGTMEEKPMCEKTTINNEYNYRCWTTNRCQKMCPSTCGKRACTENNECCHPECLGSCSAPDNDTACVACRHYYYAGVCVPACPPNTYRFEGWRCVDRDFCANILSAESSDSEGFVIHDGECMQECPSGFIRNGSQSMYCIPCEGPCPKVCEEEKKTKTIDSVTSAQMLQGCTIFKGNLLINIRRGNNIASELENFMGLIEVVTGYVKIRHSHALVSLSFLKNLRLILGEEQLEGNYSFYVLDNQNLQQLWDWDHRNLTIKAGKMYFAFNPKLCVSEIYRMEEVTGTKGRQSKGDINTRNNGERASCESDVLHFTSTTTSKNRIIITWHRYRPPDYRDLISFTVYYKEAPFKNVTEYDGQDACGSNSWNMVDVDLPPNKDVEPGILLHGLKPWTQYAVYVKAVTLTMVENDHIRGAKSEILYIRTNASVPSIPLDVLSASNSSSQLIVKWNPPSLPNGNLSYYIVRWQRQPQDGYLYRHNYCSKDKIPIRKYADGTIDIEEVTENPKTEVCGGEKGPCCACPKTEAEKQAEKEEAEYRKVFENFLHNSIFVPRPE
Sequence of Insulin-like growth factor 1 receptor (P08069 741-1367 limits assumed): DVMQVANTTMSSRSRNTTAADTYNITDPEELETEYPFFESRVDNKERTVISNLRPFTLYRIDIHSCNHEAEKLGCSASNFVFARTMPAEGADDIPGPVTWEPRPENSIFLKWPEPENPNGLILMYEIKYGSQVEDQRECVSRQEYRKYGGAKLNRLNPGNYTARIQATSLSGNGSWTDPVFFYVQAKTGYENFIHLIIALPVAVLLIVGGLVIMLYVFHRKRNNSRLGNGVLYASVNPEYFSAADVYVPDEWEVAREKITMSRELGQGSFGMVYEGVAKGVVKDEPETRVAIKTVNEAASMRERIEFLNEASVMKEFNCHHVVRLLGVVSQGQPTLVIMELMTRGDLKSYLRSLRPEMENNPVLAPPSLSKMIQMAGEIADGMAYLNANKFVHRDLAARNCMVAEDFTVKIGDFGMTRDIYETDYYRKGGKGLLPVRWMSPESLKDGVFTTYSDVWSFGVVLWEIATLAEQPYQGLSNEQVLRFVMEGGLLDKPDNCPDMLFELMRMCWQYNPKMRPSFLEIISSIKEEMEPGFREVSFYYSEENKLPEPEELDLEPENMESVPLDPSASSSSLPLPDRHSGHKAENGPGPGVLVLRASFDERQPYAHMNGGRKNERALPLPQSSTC

IC50 (pH 7.5, 22 °C) [µM] | IC50 [µM] | SMILES
0.291 |  | COc1cc2c(Nc3ccc(Sc4ncc(C)n4C)c(Cl)c3)c(C#N)cnc2cc1NCCCN(C)C [4-({3-chloro-4-[(1,5-dimethyl-1H-imidazol-2-yl)sulfanyl]phenyl}amino)-7-{[3-(dimethylamino)propyl]amino}-6-methoxyquinoline-3-carbonitrile]
0.02 |  | CCn1c(Sc2ccc(Nc3c(C#N)cnc4cc(NCCCN5CCOCC5)c(OC)cc34)cc2Cl)nc(C)c1C [4-({3-chloro-4-[(1-ethyl-4,5-dimethyl-1H-imidazol-2-yl)sulfanyl]phenyl}amino)-6-methoxy-7-{[3-(morpholin-4-yl)propyl]amino}quinoline-3-carbonitrile]
 | 1.09 | COc1cc2c(Nc3ccc(Sc4ccccc4)cc3)c(C#N)cnc2cc1OCCCN1CCOCC1 [6-methoxy-7-[3-(morpholin-4-yl)propoxy]-4-{[4-(phenylsulfanyl)phenyl]amino}quinoline-3-carbonitrile]
0.135 |  | CCOC(=O)C1CCN(CCCOc2cc3ncc(C#N)c(Nc4ccc(Sc5nc(C)c(C)n5CC)c(Cl)c4)c3cc2OC)CC1 [ethyl 1-(3-{[4-({3-chloro-4-[(1-ethyl-4,5-dimethyl-1H-imidazol-2-yl)sulfanyl]phenyl}amino)-3-cyano-6-methoxyquinolin-7-yl]oxy}propyl)piperidine-4-carboxylate]
 | 0.017 | CCn1c(Sc2ccc(Nc3c(C#N)cnc4cc(OCCCN5CCN(CCOC(N)=O)CC5)c(OC)cc34)cc2Cl)nc(C)c1C [{2-[4-(3-{[4-({3-chloro-4-[(1-ethyl-4,5-dimethyl-1H-imidazol-2-yl)sulfanyl]phenyl}amino)-3-cyano-6-methoxyquinolin-7-yl]oxy}propyl)piperazin-1-yl]ethyl} carbamate]
